Reference: PubChem BioAssay AID1963860 (Molecular Pharmacology Branch, DTP, NCI, 2024)

Test system: CN0375-F725-PDC KRAS spheroid viability
Experiment: Anticancer human tumor CN0375-F725-PDC patient-derived colon carcinoma cell line growth inhibition [KRAS2]
Conditions: spheroids with HUVEC and MSC; for IC50: curve of first compound; for viability, T/C: stronger effect = lower value; active = viability on the fitted dose curve at most 10% of control; inactive = the rest
Method in brief: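 KRAS-mutant tumor cells were grown as spheroids with HUVEC endothelial cells and human MSCs as stroma. Targeted agents were tested alone and with KRAS pathway inhibitors. Doses started at or near clinical Cmax, or 10 microM, descending half-log.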

[1] = second compound 0.1 µM, first compound 0.0316 µM
[2] = second compound 0.1 µM, first compound 0.1 µM
[3] = second compound 0.1 µM, first compound 0.316 µM
[4] = second compound 0.1 µM, first compound 1 µM
[5] = second compound 0.1 µM, first compound 3.16 µM
[6] = second compound 0.1 µM, first compound 10 µM
[7] = second compound 0.316 µM, first compound 0.0316 µM
[8] = second compound 0.316 µM, first compound 0.1 µM
[9] = second compound 0.316 µM, first compound 0.316 µM
[10] = second compound 0.316 µM, first compound 1 µM
[11] = second compound 0.316 µM, first compound 3.16 µM
[12] = second compound 0.316 µM, first compound 10 µM
[13] = second compound 1 µM, first compound 0.0316 µM
[14] = second compound 1 µM, first compound 0.1 µM
[15] = second compound 1 µM, first compound 0.316 µM
[16] = second compound 1 µM, first compound 1 µM
[17] = second compound 1 µM, first compound 3.16 µM
[18] = second compound 1 µM, first compound 10 µM
[19] = second compound 3.16 µM, first compound 0.0316 µM
[20] = second compound 3.16 µM, first compound 0.1 µM
[21] = second compound 3.16 µM, first compound 0.316 µM
[22] = second compound 3.16 µM, first compound 1 µM
[23] = second compound 3.16 µM, first compound 3.16 µM
[24] = second compound 3.16 µM, first compound 10 µM
[25] = second compound 10 µM, first compound 0.0316 µM
[26] = second compound 10 µM, first compound 0.1 µM
[27] = second compound 10 µM, first compound 0.316 µM
[28] = second compound 10 µM, first compound 1 µM
[29] = second compound 10 µM, first compound 3.16 µM
[30] = second compound 10 µM, first compound 10 µM
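Also: spheroids exposed to agents for 7 days.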

COc1cc(Nc2ncc3c(n2)-c2ccc(Cl)cc2C(c2c(F)cccc2OC)=NC3)ccc1C(=O)O + CNCc1ccccc1-c1csc(C(C)Nc2nc(C)nc3cc(OC)c(OC)cc23)c1
> 10000 nM: IC50 (second compound 0.1 µM) | IC50 (second compound 0.316 µM) | IC50 (second compound 1 µM)
inactive: viability, T/C [1] 101% | viability, T/C [2] 95% | viability, T/C [3] 93.5% | viability, T/C [4] 90.8% | viability, T/C [5] 89% | viability, T/C [6] 75.9% | viability, T/C [7] 96.8% | viability, T/C [8] 93.1% | viability, T/C [9] 88.4% | viability, T/C [10] 83.8% | viability, T/C [11] 87.3% | viability, T/C [12] 75.7% | viability, T/C [13] 58.2% | viability, T/C [14] 54.7% | viability, T/C [15] 57.5% | viability, T/C [16] 61% | viability, T/C [17] 61.7% | viability, T/C [18] 48.4%
< 31.6 nM: IC50 (second compound 3.16 µM) | IC50 (second compound 10 µM)
active: viability, T/C [19] 0.72% | viability, T/C [20] 0.93% | viability, T/C [21] 0.51% | viability, T/C [22] 0.58% | viability, T/C [23] 1.16% | viability, T/C [24] 0.38% | viability, T/C [25] 0.31% | viability, T/C [26] 0.48% | viability, T/C [27] 0.55% | viability, T/C [28] 0.16% | viability, T/C [29] 0.24% | viability, T/C [30] 0.19%

CC(C)NCC(C(=O)N1CCN(c2ncnc3c2C(C)CC3O)CC1)c1ccc(Cl)cc1 (stereo not given) + C=CC(=O)N1CCN(c2nc(OCC3CCCN3C)nc3c2CCN(c2cccc4cccc(C)c24)C3)CC1CC#N
< 31.6 nM: IC50 (second compound 3.16 µM)
inactive: viability, T/C (second compound 0.0316 µM, first compound 0.0316 µM) 106% | viability, T/C (second compound 0.0316 µM, first compound 0.1 µM) 105% | viability, T/C (second compound 0.0316 µM, first compound 0.316 µM) 101% | viability, T/C (second compound 0.0316 µM, first compound 1 µM) 93% | viability, T/C (second compound 0.0316 µM, first compound 3.16 µM) 94.2% | viability, T/C (second compound 0.0316 µM, first compound 10 µM) 83.2% | viability, T/C [1] 106% | viability, T/C [2] 103% | viability, T/C [3] 98% | viability, T/C [4] 91.7% | viability, T/C [5] 91.4% | viability, T/C [6] 78.2% | viability, T/C [7] 101% | viability, T/C [8] 108% | viability, T/C [9] 94.6% | viability, T/C [10] 87.8% | viability, T/C [11] 85.3% | viability, T/C [12] 71.4% | viability, T/C [13] 103% | viability, T/C [14] 102% | viability, T/C [15] 92.5% | viability, T/C [16] 76.8% | viability, T/C [17] 70.9% | viability, T/C [18] 58.2% | viability, T/C [19] 19.5% | viability, T/C [20] 14.7% | viability, T/C [21] 13.5%
> 10000 nM: IC50 (second compound 0.0316 µM) | IC50 (second compound 0.1 µM) | IC50 (second compound 0.316 µM) | IC50 (second compound 1 µM)
active: viability, T/C [22] 4.72% | viability, T/C [23] 3.97% | viability, T/C [24] 1.46%

CC(=O)Nc1cccc(-n2c(=O)n(C3CC3)c(=O)c3c(Nc4ccc(I)cc4F)n(C)c(=O)c(C)c32)c1 + COc1cc2nc(C)nc(NC(C)c3cc(N)cc(C(F)(F)F)c3)c2cc1OC1CCOC1
0.913 nM: IC50 (second compound 3.16 µM)
inactive: viability, T/C (second compound 0.1 µM, first compound 0.0001 µM) 88.3% | viability, T/C (second compound 0.1 µM, first compound 0.000316 µM) 85.3% | viability, T/C (second compound 0.1 µM, first compound 0.001 µM) 65% | viability, T/C (second compound 0.1 µM, first compound 0.00316 µM) 51.6% | viability, T/C (second compound 0.1 µM, first compound 0.01 µM) 43.9% | viability, T/C [1] 30.9% | viability, T/C (second compound 0.316 µM, first compound 0.0001 µM) 84.9% | viability, T/C (second compound 0.316 µM, first compound 0.000316 µM) 77.5% | viability, T/C (second compound 0.316 µM, first compound 0.001 µM) 60.7% | viability, T/C (second compound 0.316 µM, first compound 0.00316 µM) 49.7% | viability, T/C (second compound 0.316 µM, first compound 0.01 µM) 41.9% | viability, T/C [7] 31.6% | viability, T/C (second compound 1 µM, first compound 0.0001 µM) 82.6% | viability, T/C (second compound 1 µM, first compound 0.000316 µM) 70.9% | viability, T/C (second compound 1 µM, first compound 0.001 µM) 54.6% | viability, T/C (second compound 1 µM, first compound 0.00316 µM) 44.1% | viability, T/C (second compound 1 µM, first compound 0.01 µM) 38.4% | viability, T/C [13] 29.8% | viability, T/C (second compound 3.16 µM, first compound 0.0001 µM) 75.4% | viability, T/C (second compound 3.16 µM, first compound 0.000316 µM) 62.4% | viability, T/C (second compound 3.16 µM, first compound 0.001 µM) 49.3% | viability, T/C (second compound 3.16 µM, first compound 0.00316 µM) 36.4% | viability, T/C (second compound 3.16 µM, first compound 0.01 µM) 33.5% | viability, T/C [19] 25.4% | viability, T/C (second compound 10 µM, first compound 0.0001 µM) 14% | viability, T/C (second compound 10 µM, first compound 0.000316 µM) 13.4%
1.85 nM: IC50 (second compound 1 µM)
3.26 nM: IC50 (second compound 0.316 µM)
active: viability, T/C (second compound 10 µM, first compound 0.001 µM) 9.44% | viability, T/C (second compound 10 µM, first compound 0.00316 µM) 3.96% | viability, T/C (second compound 10 µM, first compound 0.01 µM) 6.23% | viability, T/C [25] 1.76%
4.1 nM: IC50 (second compound 0.1 µM)
< 0.1 nM: IC50 (second compound 10 µM)

O=C(c1cc(Cc2n[nH]c(=O)c3ccccc23)ccc1F)N1CCN(C(=O)C2CC2)CC1 + CNCc1ccccc1-c1csc(C(C)Nc2nc(C)nc3cc(OC)c(OC)cc23)c1
active: viability, T/C [19] 0.68% | viability, T/C [20] 0.36% | viability, T/C [21] 0.74% | viability, T/C [22] 0.33% | viability, T/C [23] 0.37% | viability, T/C [24] 0.55% | viability, T/C [25] 0.64% | viability, T/C [26] 0.22% | viability, T/C [27] 0.57% | viability, T/C [28] 0.37% | viability, T/C [29] 0.19% | viability, T/C [30] 0.33%
< 31.6 nM: IC50 (second compound 3.16 µM) | IC50 (second compound 10 µM)
inactive: viability, T/C [1] 112% | viability, T/C [2] 109% | viability, T/C [3] 100% | viability, T/C [4] 107% | viability, T/C [5] 104% | viability, T/C [6] 95.5% | viability, T/C [7] 108% | viability, T/C [8] 105% | viability, T/C [9] 96.8% | viability, T/C [10] 92.3% | viability, T/C [11] 96.9% | viability, T/C [12] 87.7% | viability, T/C [13] 96.9% | viability, T/C [14] 94.8% | viability, T/C [15] 89.7% | viability, T/C [16] 81% | viability, T/C [17] 87.8% | viability, T/C [18] 79.6%
> 10000 nM: IC50 (second compound 0.1 µM) | IC50 (second compound 0.316 µM) | IC50 (second compound 1 µM)
